Patent publication US12454530B2, “Amido cyclohexane acid derivatives as LPA receptor inhibitors” (CHIESI FARMACEUTICI S.P.A., priority 2020, dated 2025)
pIC50: −log10 of the molar value. Where two headings read alike, the source gives them in different places.

How the values were obtained:
[1] = target: human recombinant LPA1 expressed in CHO cells (Homo sapiens (Human), UniProt Q92633); test: LPA1 antagonist FLIPR calcium assay in CHO-hLPA1 cells; assay type: cell-based
Protocol: The effectiveness of compounds of the present invention as LPA1 antagonists can be determined at the human recombinant LPA1 expressed in CHO cells, using a FLIPR assay in 384 well format.
CHO-hLPA1 cell lines are cultured in a humidified incubator at 5% CO2 in DMEM/F-12 (1:1) MIXTURE with 2 mM Glutamax, supplemented with 10% of Foetal Bovine Serum, 1 mM Sodium Pyruvate, 11 mM Hepes and 1× Penicillin/Streptomycin. […] Serial dilutions (1:3 or 1:4, 11 points CRC) of compounds are performed in 100% DMSO at 200× the final concentration. […] The final concentration of DMSO in the assay will be 0.5% in each well. Medium is removed by aspiration and cells are then incubated with 30 μl of a loading solution containing 5 μM of the cytoplasmic Ca2+ indicator Cal-520 AM in Assay Buffer containing 2.5 mM probenecid for 30 min at 37° C. incubator (cell loading). The loaded cell plates are transferred into the FLIPR instrument and calcium responses are monitored during the on-line addition protocols. For testing of compounds, after the cell loading, 10 μl/well of 4× antagonists' solution was added onto the cells. After 30 min pre-incubation (at 37° C.), 10 μl/well of 5× concentrated LPA EC80 was added and Ca2+ mobilization responses was followed during the on-line addition protocol. Intracellular peak fluorescence values subtracted by baseline fluorescence are exported and analysed to determine IC50 values, respectively. The calcium response is expressed as percentage of the maximal inhibition of the EC80 agonist response.
The raw data (peak height expressed as relative fluorescence units) are normalized and transformed into “percent of inhibition”. Curve fitting and pIC50 (−LogIC50) estimations are carried out using a four-parameter logistic model using XLfit Software.

BSEP = BSEP (Homo sapiens (Human), UniProt O95342); test: BSEP inhibition: biliary clearance of Taurocolic Acid in sandwich-cultured human hepatocytes; assay type: in vitro ADME; conditions: 50 μM test compound, 10 μM TCA, human hepatocytes sandwich configuration; for inhibition at 10 min, 50 μM: sandwich-cultured cryopreserved human hepatocytes, probe Taurocolic Acid (TCA)
Sequence of BSEP (O95342 whole entry): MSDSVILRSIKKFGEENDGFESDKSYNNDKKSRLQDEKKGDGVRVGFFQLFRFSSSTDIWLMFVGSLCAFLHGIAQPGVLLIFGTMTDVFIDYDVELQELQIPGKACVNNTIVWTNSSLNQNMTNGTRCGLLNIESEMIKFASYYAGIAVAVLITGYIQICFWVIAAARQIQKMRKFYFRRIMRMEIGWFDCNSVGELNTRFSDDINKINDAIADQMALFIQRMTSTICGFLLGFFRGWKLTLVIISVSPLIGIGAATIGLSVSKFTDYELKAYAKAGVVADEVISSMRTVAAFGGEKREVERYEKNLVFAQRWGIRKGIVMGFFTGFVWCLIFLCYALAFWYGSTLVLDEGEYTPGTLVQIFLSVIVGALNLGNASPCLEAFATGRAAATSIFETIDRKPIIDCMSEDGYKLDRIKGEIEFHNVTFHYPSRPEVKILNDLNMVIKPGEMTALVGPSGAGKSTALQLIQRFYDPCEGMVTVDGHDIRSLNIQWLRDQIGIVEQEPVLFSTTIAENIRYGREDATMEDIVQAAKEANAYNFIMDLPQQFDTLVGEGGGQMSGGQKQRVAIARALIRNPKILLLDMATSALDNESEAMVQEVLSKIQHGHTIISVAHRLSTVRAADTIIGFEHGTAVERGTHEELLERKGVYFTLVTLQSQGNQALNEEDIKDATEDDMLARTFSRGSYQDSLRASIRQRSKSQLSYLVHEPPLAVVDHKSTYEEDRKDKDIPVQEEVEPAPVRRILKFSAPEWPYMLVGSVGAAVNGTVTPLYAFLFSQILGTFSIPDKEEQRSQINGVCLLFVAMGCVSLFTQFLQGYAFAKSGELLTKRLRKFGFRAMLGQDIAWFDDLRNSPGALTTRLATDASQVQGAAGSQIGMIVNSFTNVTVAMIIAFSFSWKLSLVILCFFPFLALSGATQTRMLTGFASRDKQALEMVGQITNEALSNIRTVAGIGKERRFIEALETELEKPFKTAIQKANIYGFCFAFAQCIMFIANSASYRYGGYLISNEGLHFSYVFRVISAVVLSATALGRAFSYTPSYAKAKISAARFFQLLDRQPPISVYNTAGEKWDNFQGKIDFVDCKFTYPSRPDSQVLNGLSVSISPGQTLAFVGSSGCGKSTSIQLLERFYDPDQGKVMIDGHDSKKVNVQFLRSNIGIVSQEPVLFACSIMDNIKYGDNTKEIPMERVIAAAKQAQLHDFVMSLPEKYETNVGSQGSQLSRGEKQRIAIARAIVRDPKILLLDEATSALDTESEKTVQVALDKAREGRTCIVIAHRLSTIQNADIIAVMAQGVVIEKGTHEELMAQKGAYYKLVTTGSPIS
Protocol: BSEP inhibition was evaluated using human hepatocytes cultured between two layer of collagen (sandwich configuration). In this culture condition, hepatocytes express relevant transporters including BSEP and retain the bile canalicular structure. An inhibition of the biliary clearance of Taurocolic Acid (TCA), a known BSEP substrate, was used to assess BSEP interaction.
BSEP inhibition was evaluated using cryopreserved human hepatocytes (Plateable Cryopreserved Human Hepatocytes, BIOIVT) cultured for 5 day between two layer of collagen (sandwich configuration). In this culture condition, hepatocytes express relevant transporters including BSEP and retain the bile canalicular structure.
On day 5 of culture, hepatic cells are ready for the assay and the biliary clearance of Taurocolic Acid (TCA), a known BSEP substrate, can be estimated in presence and in absence of compound of interest.
The sample solution was prepared dissolving test compound and TCA in DMSO and then diluted in the Assay Buffer: Hank's Balance Salt Solution (HBSS+) warmed at 37° C. before use, to give the 10 μM TCA working solution with and without 50 μM of test compound. Hepatocytes were incubated for 10 minutes with these working solutions allowing TCA to be excreted into bile. At the end of incubation, the working solution was aspirated, and the content of the bile was collected through the addition of HBSS Modified without Ca2+/Mg2+(HBSS−). The presence of Ca2+ in the buffer is required to maintain the integrity of the tight junctions, the diffusional barrier between the canalicular lumen and extracellular space. Instead, incubation of cells in Ca2+-free buffer disrupts the tight junctions and opens the bile canalicular structures, allowing the bile content to be released and collect for HPLC-MS/MS analysis.
The in vitro biliary clearance of TCA incubated with and without test compounds is calculated according to the following formula:
where • Acc. Bile=(TCA amount in HBSS (−) buffer samples (pmol/mg protein)*Volume of each samples (mL))/Protein content per well (mg) • AUC=Incubation time (min)*T0 Concentration. T0 concentration is the initial TCA concentration in the medium.
The inhibition of BSEP was calculated as percentage of inhibition of TCA biliary clearance in presence of compound of interest, according to the following formula: BSEP inhibition %=100−(TCA ClBil with test compound*100)
TCA ClBil without test compound.

[2] = range of activity, CHO-hLPA1, LPA EC80, Ca2+ mobilization, read-out: LPA1 IC50

Sequence of human recombinant LPA1 expressed in CHO cells (Q92633 whole entry): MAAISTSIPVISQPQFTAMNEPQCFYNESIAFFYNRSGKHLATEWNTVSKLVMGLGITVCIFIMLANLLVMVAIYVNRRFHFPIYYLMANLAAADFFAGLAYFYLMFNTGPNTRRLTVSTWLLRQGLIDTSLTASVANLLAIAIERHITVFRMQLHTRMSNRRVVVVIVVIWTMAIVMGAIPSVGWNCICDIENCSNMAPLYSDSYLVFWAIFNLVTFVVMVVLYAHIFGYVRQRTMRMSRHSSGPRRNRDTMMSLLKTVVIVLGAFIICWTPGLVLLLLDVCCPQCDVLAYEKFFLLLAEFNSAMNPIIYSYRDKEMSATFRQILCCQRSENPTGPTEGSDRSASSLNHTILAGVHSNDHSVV

Row | Structure (SMILES) | pIC50 [1, 2] | pIC50 ([1]; comparative compound, read-out: IC50 on receptor LPA1) | BSEP Inhibition at 50 μM (BSEP) | inhibition at 10 min, 50 μM (BSEP)
1 | Cc1nc(-c2onc(C)c2NC(=O)O[C@H](C)c2ccccc2Cl)ccc1NC(=O)C1CCCCC1C(=O)O (single isomer, unassigned) [Example 14] |  |  | ≤50% | 
2 | Cc1noc(-c2ccc(NC(=O)[C@H]3CCCC[C@@H]3C(=O)O)cn2)c1NC(=O)OC(C)c1cccnc1F (single isomer, unassigned) [Example 18] | 6.60 to 7.30 |  |  | ≤ 50%
3 | Cc1nc(-c2onc(C)c2NC(=O)OC(C)c2cccnc2F)ccc1NC(=O)[C@H]1CCCC[C@@H]1C(=O)O (single isomer, unassigned) [Example 20] | 6.60 to 7.30 |  |  | ≤ 50%
4 | Cc1nc(-c2nnn(C)c2NC(=O)O[C@H](C)c2ccccc2Cl)ccc1NC(=O)[C@H]1CCCC[C@@H]1C(=O)O [Example 3, (1S,2S)-2-((6-(5-((((R)-1-(2-chlorophenyl)ethoxy)carbonyl)amino)-1-methyl-1H-1,2,3-triazol-4-yl)-2-methylpyridin-3-yl)carbamoyl)cyclohexane-1-carboxylic acid] | > 7.30 |  |  | ≤ 50%
5 | Cc1nc(-c2onc(C)c2NC(=O)O[C@H](C)c2cccnc2Cl)ccc1NC(=O)[C@H]1CCCC[C@@H]1C(=O)O [Example 11, (1S,2S)-2-((6-(4-((((R)-1-(2-chloropyridin-3-yl)ethoxy)carbonyl)amino)-3-methylisoxazol-5-yl)-2-methylpyridin-3-yl)carbamoyl)cyclohexane-1-carboxylic acid] | 6.60 to 7.30 |  |  | ≤ 50%
6 | Cc1nc(-c2onc(C)c2NC(=O)O[C@H](C)c2cccnc2)ccc1NC(=O)[C@H]1CCCC[C@@H]1C(=O)O [Example 15, (1S,2S)-2-((2-methyl-6-(3-methyl-4-((((R)-1-(pyridin-3-yl)ethoxy)carbonyl)amino)isoxazol-5-yl)pyridin-3-yl)carbamoyl)cyclohexane-1-carboxylic acid] | 6.60 to 7.30 |  |  | ≤ 50%
7 | Cc1noc(-c2ccc(NC(=O)[C@H]3CCCC[C@@H]3C(=O)O)cn2)c1NC(=O)OC(C)c1cccnc1F (stereo partly drawn) [Example 17, (1S,2S)-2-((6-(4-(((1-(2-fluoropyridin-3-yl)ethoxy)carbonyl)amino)-3-methylisoxazol-5-yl)pyridin-3-yl)carbamoyl)cyclohexane-1-carboxylic acid] | 6.60 to 7.30 |  |  | ≤ 50%
8 | Cc1nc(-c2onc(C)c2NC(=O)OC(C)c2cccnc2F)ccc1NC(=O)[C@H]1CCCC[C@@H]1C(=O)O (stereo partly drawn) [Example 19, (1S,2S)-2-((6-(4-(((1-(2-fluoropyridin-3-yl)ethoxy)carbonyl)amino)-3-methylisoxazol-5-yl)-2-methylpyridin-3-yl)carbamoyl)cyclohexane-1-carboxylic acid] | 6.60 to 7.30 |  |  | 
9 | Cc1nc(-c2onc(C)c2NC(=O)O[C@H](C)c2nccs2)ccc1NC(=O)[C@H]1CCCC[C@@H]1C(=O)O [Example 22, (1S,2S)-2-((2-methyl-6-(3-methyl-4-((((R)-1-(thiazol-2-yl)ethoxy)carbonyl)amino)isoxazol-5-yl)pyridin-3-yl)carbamoyl)cyclohexane-1-carboxylic acid] | 6.22 to 6.60 |  |  | ≤ 50%
10 | Cc1noc(-c2ccc(NC(=O)[C@H]3CCCC[C@@H]3C(=O)O)cn2)c1NC(=O)O[C@H](C)c1cccnc1Cl [Example 29, (1S,2S)-2-((6-(4-((((R)-1-(2-chloropyridin-3-yl)ethoxy)carbonyl)amino)-3-methylisoxazol-5-yl)pyridin-3-yl)carbamoyl)cyclohexane-1-carboxylic acid] | 6.60 to 7.30 |  |  | ≤ 50%
11 | Cc1noc(-c2ccc(N(C)C(=O)[C@H]3CCCC[C@@H]3C(=O)O)cn2)c1NC(=O)O[C@H](C)c1cccnc1Cl [Example 30, (1S,2S)-2-((6-(4-((((R)-1-(2-chloropyridin-3-yl)ethoxy)carbonyl)amino)-3-methylisoxazol-5-yl)pyridin-3-yl)(methyl)carbamoyl)cyclohexane-1-carboxylic acid] | 6.22 to 6.60 |  |  | ≤ 50%
12 | Cc1noc(-c2ncc(NC(=O)[C@H]3CCCC[C@@H]3C(=O)O)cc2F)c1NC(=O)O[C@H](C)c1ccccc1Cl [Example 31, (1S,2S)-2-((6-(4-((((R)-1-(2-chlorophenyl)ethoxy)carbonyl)amino)-3-methylisoxazol-5-yl)-5-fluoropyridin-3-yl)carbamoyl)cyclohexane-1-carboxylic acid] | > 7.30 |  |  | ≤ 50%
13 | Cc1nc(-c2onc(C)c2NC(=O)O[C@H](C)c2cccnc2)ccc1NC(=O)C1CCCCC1C(=O)O (stereo partly drawn) [Example 33, Cis-2-((2-methyl-6-(3-methyl-4-((((R)-1-(pyridin-3-yl)ethoxy)carbonyl)amino)isoxazol-5-yl)pyridin-3-yl)carbamoyl)cyclohexane-1-carboxylic acid] | 6.22 to 6.60 |  |  | 

Second part, led by results:

Row | pIC50 [1, 2] | pIC50 ([1]; comparative compound, read-out: IC50 on receptor LPA1) | Structure (SMILES) | BSEP Inhibition at 50 μM (BSEP) | inhibition at 10 min, 50 μM (BSEP)
14 | > 7.30 |  | C[C@@H](OC(=O)Nc1c(-c2ccc(NC(=O)C3CCCCC3C(=O)O)cc2)cnn1C)c1ccccc1Cl (single isomer, unassigned) [Example 4] |  | 
15 | 6.22 to 6.60 |  | C[C@@H](OC(=O)Nc1c(-c2ccc(NC(=O)C3CCCCC3C(=O)O)cc2)cnn1C)c1ccccc1Cl (single isomer, unassigned) [Example 5] |  | 
16 | 6.22 to 6.60 |  | C[C@@H](OC(=O)Nc1ccsc1-c1ccc(NC(=O)C2CCCCC2C(=O)O)cc1)c1ccccc1Cl (single isomer, unassigned) [Example 8] |  | 
17 | > 7.30 |  | C[C@@H](OC(=O)Nc1ccsc1-c1ccc(NC(=O)C2CCCCC2C(=O)O)cc1)c1ccccc1Cl (single isomer, unassigned) [Example 10] | ≤50% | 
18 | > 7.30 |  | C[C@@H](OC(=O)Nc1ccsc1-c1ccc(NC(=O)C2CCCCC2C(=O)O)cc1)c1ccccc1Cl (stereo partly drawn) [Example 6, Cis-2-((4-(3-((((R)-1-(2-chlorophenyl)ethoxy)carbonyl)amino)thiophen-2-yl)phenyl)carbamoyl)cyclohexane-1-carboxylic acid] |  | 
19 | 6.22 to 6.60 |  | C[C@@H](OC(=O)Nc1ccsc1-c1ccc(NC(=O)[C@H]2CCCC[C@@H]2C(=O)O)cn1)c1ccccc1Cl [Example 21, (1S,2S)-2-((6-(3-((((R)-1-(2-chlorophenyl)ethoxy)carbonyl)amino)thiophen-2-yl)pyridin-3-yl)carbamoyl)cyclohexane-1-carboxylic acid] |  | 
20 | > 7.30 |  | C[C@@H](OC(=O)Nc1c(-c2ccc(NC(=O)[C@H]3CCCC[C@@H]3C(=O)O)cc2)nnn1C)c1ccccc1Cl [Example 23, (1S,2S)-2-((4-(5-((((R)-1-(2-chlorophenyl)ethoxy)carbonyl)amino)-1-methyl-1H-1,2,3-triazol-4-yl)phenyl)carbamoyl)cyclohexane-1-carboxylic acid] |  | ≤ 50%
21 |  | < 6.00 | Cc1noc(-c2ccc(NC(=O)C3CCCCC3C(=O)O)cc2)c1NC(=O)O[C@H](C)c1cccnc1 (stereo partly drawn) [comparative Example B, 2-((4-(3-methyl-4-((((R)-1-(pyridin-3-yl)ethoxy)carbonyl)amino)isoxazol-5-yl)phenyl)carbamoyl)cyclohexane-1-carboxylic acid, reference compound] |  | 
